Experimental data reported in US7799821B2, “Therapeutic compounds” (Allergan, Inc., priority 2004, dated 2010).

Experiments:
Beagle dogs [1] = assay: Ocular surface hyperemia, dogs; format: in vivo; parameters: key: 0.5: <1 trace; 1 mild; 2: moderate; 3: severe; details: score
Protocol: (§1) Ocular surface hyperemia was visually assessed and scored according to a system typically used clinically.
(§2) Ocular surface hyperemia was evaluated at the same time points as intraocular pressure measurement. It should be noted that untreated dog eyes frequently have a pink/red tone. Thus, values of trace or even mild are not necessarily out of the normal range. Similar tests were used to determine ocular surface hyperemia on monkeys and rabbits.

monkeys = assay: Intraocular pressure (IOP) in monkeys; format: in vivo; details: Conc. 0.10% (0.1%) g/100 mL
rabbits = assay: Ocular surface hyperemia, rabbits; format: in vivo; details: Conc. 0.10% (0.1%) g/100 mL, score
Protocol: as §1, §2

Beagle dogs [2] = assay: Intraocular pressure (IOP) in dogs, pneumatonometry; format: in vivo; details: topical
Protocol: (§3) Intraocular pressure studies in dogs involved pneumatonometry performed in conscious, Beagle dogs of both sexes (10-15 kg). The animals remained conscious throughout the study and were gently restrained by hand. Drugs were administered topically to one eye as a 25 μL volume drop, the other eye received 25 μL vehicle (0.1% (w/v) polysorbate 80; 10 mM TRIS) as a control. Proparacaine (0.1% w/v) was used for corneal anesthesia during tonometry. Intraocular pressure was determined just before drug administration and at 2, 4 and 6 hr thereafter on each day of the 5 day study. Drug was administered immediately after the first IOP reading.
as §3, with “(0.1%” for “(0.1% (w/v)”, “80:10” for “80; 10”, “(0.1%)” for “(0.1% w/v)”

HEP3 = target: T1, HEP3 (Homo sapiens, UniProt P43115); assay: Radioligand binding, EP3; details: printed in the HEP3 binding column; read-out: Ki (marked "Ki" in BINDING HEP3)
T1 sequence (P43115 1-390): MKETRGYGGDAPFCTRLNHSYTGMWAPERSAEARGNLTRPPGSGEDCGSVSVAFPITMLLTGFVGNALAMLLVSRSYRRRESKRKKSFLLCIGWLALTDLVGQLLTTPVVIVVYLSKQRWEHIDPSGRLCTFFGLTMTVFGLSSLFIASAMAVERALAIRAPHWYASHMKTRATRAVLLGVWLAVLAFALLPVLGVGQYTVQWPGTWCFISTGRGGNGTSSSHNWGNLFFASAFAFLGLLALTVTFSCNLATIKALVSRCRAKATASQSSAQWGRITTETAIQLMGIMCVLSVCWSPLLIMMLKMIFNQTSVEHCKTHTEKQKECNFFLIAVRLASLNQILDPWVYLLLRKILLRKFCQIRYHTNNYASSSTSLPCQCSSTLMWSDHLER

hEP2/Gqs5 = target: T2, hEP2/Gqs5 (Homo sapiens, UniProt P43116); assay: FLIPR calcium signal, hEP2; format: cell-based; details: FLIPR Ca2+ signal, HEK-293(EBNA); read-out: FUNCTIONAL EC50 HEP2
T2 construct: expressed in transfected cells; host or cells: HEK-293(EBNA)
T2 sequence (P43116 whole entry): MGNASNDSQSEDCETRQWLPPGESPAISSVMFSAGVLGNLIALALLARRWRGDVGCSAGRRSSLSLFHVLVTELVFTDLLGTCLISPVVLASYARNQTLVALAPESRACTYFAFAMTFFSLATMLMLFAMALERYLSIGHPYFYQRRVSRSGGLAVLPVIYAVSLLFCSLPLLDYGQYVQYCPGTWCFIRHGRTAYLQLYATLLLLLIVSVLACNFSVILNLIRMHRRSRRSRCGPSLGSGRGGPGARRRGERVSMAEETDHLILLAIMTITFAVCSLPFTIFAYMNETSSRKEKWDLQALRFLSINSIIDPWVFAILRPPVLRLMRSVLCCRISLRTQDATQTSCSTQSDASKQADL
Procedure, shortened: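 HEK-293(EBNA) cells stably expressing the recombinant human receptor were loaded with 2 μM Fluo-4 AM for 45 min and read on FLIPR at 37° C in HBSS-HEPES pH 7.4. Peak fluorescence rise was expressed relative to buffer and standard agonist controls (BW245C, PGE2 or U-46619 by receptor); compounds were run 10^−5 to 10^−11 M in duplicate, n≧3.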

SMILES	DOG Max. hyperemia (Beagle dogs [1]; Conc. 0.10% (0.1%) g/100 mL)	MONKEY Max. ΔIOP (mm Hg) (monkeys)	RABBIT Max. hyperemia (rabbits)	DOG Max. ΔIOP (mm Hg) (Beagle dogs [2]; Conc. 0.10% (0.1%) g/100 mL)	further results
CCCCCC(=O)c1ccc([C@@H]2[C@@H](C/C=C\CCCC(=O)O)[C@H](Cl)C[C@H]2O)cc1	2.0	31	–	–	–
CCCCCC(=O)c1ccc([C@@H]2[C@@H](C/C=C\CCCC(=O)OC(C)C)[C@H](Cl)C[C@H]2O)cc1	0.8	20	0	–	–
CCCCCC(O)c1ccc([C@@H]2[C@@H](C/C=C\CCCC(=O)OC(C)C)[C@H](Cl)C[C@H]2Cl)cc1 (stereo partly drawn)	0.6	19	0.0	−12	–
CC(C)C(O)c1ccc([C@@H]2[C@@H](C/C=C\CCCC(=O)O)[C@H](Cl)C[C@H]2O)cc1 (stereo partly drawn)	–	–	–	–	Ki (HEP3): 1340 nM; EC50 (hEP2/Gqs5): 497 nM
CC(C)C(O)c1ccc([C@@H]2[C@@H](CCCCCCC(=O)O)[C@H](Cl)C[C@H]2O)cc1 (stereo partly drawn)	–	–	–	–	Ki (HEP3): 3020 nM; EC50 (hEP2/Gqs5): > 10000 nM
CC(C)(C)c1ccc([C@@H]2[C@@H](CCCCCCC(=O)O)[C@H](Cl)C[C@H]2O)cc1 [drawing 237]	0.9	–	0	−4	–
O=C(O)CCC/C=C\C[C@@H]1[C@@H](c2ccc(C(O)C3CCCCC3)cc2)[C@H](O)C[C@H]1Cl (stereo partly drawn) [drawing 239]	1	–	0	−4	–
CC(C)(CO)c1ccc([C@@H]2[C@@H](C/C=C\CCCC(=O)O)[C@H](Cl)C[C@H]2O)cc1 [drawing 243]	–	–	–	–	DOG Max. ΔIOP (mm Hg) (Beagle dogs [2]; Conc. 0.30% g/100 mL): −8 mm Hg; DOG Max. hyperemia (Beagle dogs [1]; Conc. 0.30% g/100 mL): 0.9
